Columns and labels:
CYP26A1 = CYP26A1 (Homo sapiens (Human), UniProt O43174); assay: Cell-based inhibitor assay ([3H]-RA metabolism), CYP26A1 stably transfected HeLa cells; conditions: for IC50: HeLa cell-based assay, 3 hours; for CYP26A1 Rel. to keto: IC50 relative to ketoconazole
Description: (§1) CYP26A1 or CYP26B1 stably transfected HeLa cells were maintained in Minimum Essential Medium (MEM) containing 10% fetal bovine serum (FBS) and 100 μg/mL hygromycin. Exponentially growing cells were harvested by incubation in trypsin. Cells were then collected and re-plated in 48-well culture plates at 5×10^5 cells in 0.2 mL of culture medium containing 0.05 μCi [^3H]-RA in the presence or absence of increasing concentrations of a test compound. The test compounds were diluted in dimethyl sulfoxide (DMSO) and then added in duplicate to wells at 0.01, 0.1, 1, 10 and 100 μM final concentration. As a positive control for inhibition of RA metabolism, cells were also incubated with ketoconazole at the same concentrations as above. Cells were incubated for 3 hours at 37° C. Retinoids were then extracted using the procedure of Bligh, et al., (1959), Canadian Journal of Biochemistry 37, 911-917, which was modified by using dichloromethane instead of chloroform. Each sample's water soluble radioactivity level was quantified using a β-scintillation counter (using Ecolume scintillation fluid, available from MP Biomedicals of Solon, Ohio, USA). IC50 values represented the concentration of inhibitor required to inhibit all trans-RA metabolism by 50%, and were derived from log transformed data.

CYP26B1 = CYP26B1 (Homo sapiens (Human), UniProt Q9NR63); assay: Cell-based inhibitor assay ([3H]-RA metabolism), CYP26B1 stably transfected HeLa cells; conditions: for IC50: HeLa cell-based assay, 3 hours; for CYP26B1 Rel. to keto: IC50 relative to ketoconazole
Description: as §1

[1] = tested on: Cyp26a1-luc construct in MCF-7 cells; assay: Retinoid activity assay, Cyp26a1-luc reporter in MCF-7 cells; type: cell-based; conditions: 24 hours, firefly relative to Renilla luciferase
Excerpt: This retinoid activity assay measures the ability of test compounds to induce expression of a transiently transfected RA sensitive reporter construct. In this assay, MCF-7 cells are transfected with a construct comprising an upstream promoter of the CYP26A1 gene containing 2 RA response elements driving expression of firefly luciferase (pCYP26A1-luc). Since CYP26A1 is highly inducible by RA in these cells, this construct serves as a sensitive reporter of retinod-like transcriptional activity.
MCF-7 cells were maintained in a RPMI-1640 medium containing 10% FBS. Exponentially growing cells were harvested by incubation in trypsin. Cells were then collected and plated in 24-well plates at 50,000 cells/well. Once cells reached 80-90% confluence (e.g., the next day), cells were transfected with two plasmids. The first plasmid was CYP26A1-luc construct (375 ng). The second plasmid was a control plasmid comprising the Renilla luciferase gene driven by constitutive thymidine kinase promoter (pRL-tk) (25 ng). Transfection was performed using FuGene 6 transfection reagent (Promega) with a 1:3 ratio of DNA:FuGene. 24 hours after transfection, cells were treated with test compounds diluted in DMSO in triplicate at 0.1, 1 and 10 μM final concentrations. As a positive control for reporter activation, cells were also treated with RA diluted in DMSO at the same concentrations listed above. DMSO treatment alone served as a negative control. After 24 hours of treatment, cells were harvested in passive lysis buffer (Promega) and luciferase activity in cell lysates were read using a luminometer. Data are expressed as the activity of firefly luciferase relative to Renilla luciferase (see Tables 3-5). For CYP26A1 inhibitor compounds, no activation of the reporter was detected, while the related retinoid-like compound induces luciferase expression.

human AML THP-1 cells = assay: Leukemia cell differentiation by FACS (PE-CD11b), THP-1 cells with or without OP9 stroma; type: cell-based; conditions: RA alone
Description: (§2) Many human non-APL AML cell lines are sensitive to RA-induced differentiation. However, co-culture of leukemic cells with bone marrow stromal cells can block this effect of RA. This assay tests the ability of CYP26 inhibitor compounds to overcome the protective effect that stromal cells have on leukemic cell differentiation. For these experiments, OP9 mouse bone marrow stromal cells are grown MEM-α containing 20% FBS, in 24 well plates until a cell monolayer is formed. OP9 cells are then irradiated (15Gy) using a GammaCell 20 cesium-137 source (located at Queen's University) in order to induce growth arrest. Leukemic cells are then added to the irradiated monolayers, or control wells without OP9 cells. AML cell lines (150,000 cells) are then plated onto OP9 monolayers in their appropriated growth medium; THP-1 RPMI-1640 medium containing 10% FBS; MDSL, RPMI-1640 medium containing 10% FBS and 10 ng/ml recombinant human IL-3; Kasumi-1, RPMI-1640 containing 20% FBS; MV4-11, IMDM containing 10% FBS. Cells are then treated for 72 hours with DMSO (vehicle control), RA (0.1 μM for THP-1 and MV4-11 cells, and 1 μM for Kasumi-1 cells), test CYP26 inhibitor compound, or the combination of RA and inhibitor compound. After the treatment period, leukemic cells are collected and stained with fluorophore labeled antibodies against cell surface antigens indicative of myeloid differentiation (PE-CD11b), or of stem cell populations (FITC-CD34, PE-CD38); all antibodies are available from BD Biosciences. Stained cells are then sorted by FACS in a BD FACS Aria 3 flow cytometer (Queen's University) using FACS Diva software, to assess percentage of cells that are CD11b^+, the relative expression levels of CD11b (by median fluorescence intensity—MFI), or percentage of CD34^+CD38^− leukemic stem cells (LSCs). Results are typically presented as the average of triplicates.

THP-1 cells = assay: Leukemia cell colony formation, THP-1 cells; type: cell-based, human; conditions: RA alone, without stroma
Description: This experiment is used to test the long-term proliferative ability of hematopoietic stem and progenitor cells as well as leukemic stem cells. Colony forming ability in long term cultures is indicative of stem/progenitor cell activity. […] For these experiments, bone marrow stromal and leukemic cell co-cultures are prepared as described above and treated with RA and/or CYP26 inhibitor compound for 72 hours. After the treatment period, leukemic cells are collected and re-plated in semi-solid methylcellulose medium to assess colony forming ability. 500 leukemic cells are plated per dish in 35 mm plates in 1.1 ml of MethoCult (available from STEMCELL Technologies, Vancouver, Canada). Triplicate plates are prepared per treatment, and cultures are grown for 14-16 days in a CO2 incubator. After the culture period colonies are counted under a dissecting microscope.

MV4-11 cells [2] = assay: Leukemia cell differentiation by FACS (CD11b+), MV4-11 cells with or without stroma; type: cell-based, human; conditions: RA alone, without stroma
Description: as §2, with “Cells are then treated for 72 hours with DMSO (vehicle control), RA (0.1 μM for THP-1 and MV4-11 cells, and 1 μM for Kasumi-1 cells), test CYP26 inhibitor compound, or the combination of RA and inhibitor compound. After the treatment period, leukemic cells are collected and stained with fluorophore labeled antibodies against cell surface antigens indicative of myeloid differentiation (PE-CD11b), or of stem cell populations (FITC-CD34, PE-CD38); all antibodies are available from BD Biosciences.” left out, “Results are typically presented as the average of triplicates.” left out

MV4-11 cells [3] = assay: Leukemia cell apoptosis (FITC-Annexin V), MV4-11 cells; type: cell-based, human; conditions: RA alone
Description: RA can also induce apoptosis is a variety of cell types, including AML cells. This experiment tests CYP26 inhibitor compounds for their ability to rescue RA-induced apoptosis in the presence of bone marrow stromal cells. For these experiments MV4-11 AML cells are plated as above, in the presence and absence of stromal monolayers. Cells are then treated for 48 hours with RA (0.1 μM). After the treatment period, cells are stained with a FITC-labeled annexin V antibody (available from Thermofisher Scientific), which binds to the surface of apoptotic cells. Cells are then sorted by FACS in a as above and data are expressed as percentage of annexin V^+ (apoptotic) cells.

kasumi-1 human AML cells = assay: CD34+CD38- LSC analysis by FACS, Kasumi-1 cells with or without OP9 stroma; type: cell-based; conditions: 1 μM RA alone, without stroma
Description: as §2, with “Cells are then treated for 72 hours with DMSO (vehicle control), RA (0.1 μM for THP-1 and MV4-11 cells, and 1 μM for Kasumi-1 cells), test CYP26 inhibitor compound, or the combination of RA and inhibitor compound. After the treatment period, leukemic cells are collected and stained with fluorophore labeled antibodies against cell surface antigens indicative of myeloid differentiation (PE-CD11b), or of stem cell populations (FITC-CD34, PE-CD38); all antibodies are available from BD Biosciences.” left out, “Results are typically presented as the average of triplicates.” left out

rhino mice = assay: Rhino mouse model of acne; type: in vivo; conditions: topical 10 nmol RA, 5 times per week, two weeks
Description: These experiments test the ability of CYP26 inhibitor compounds and other retinoids for potential anti-acne efficacy in a mouse model of acne. The rhino mouse model is a hairless mutant that develops skin lesions similar to acne, and has been used extensively as a model to assess new acne treatments, as well as in vivo activity of retinoids. Test compounds or RA were dissolved in acetone/10% DMSO, and 0.4 ml was applied topically to the dorsal skin of animals (2 male+2 female) once a day for five days per week, for two consecutive weeks. On the day after the last treatment, animals were sacrificed and skin was collected from the treated are and processed for histology, and epidermal sheets prepared for visualization of utriculi. Histological sections were prepared by paraffin embedding of formalin fixed samples, and stained with hematoxylin and eosin. Photographs were taken under a Nikon Eclipse E600 microscope using Q Imaging software at 20× magnification. Epidermal sheets were prepared by treating skin samples for 5 days in 0.5% acetic acid at 4° C. for 5 days, after which the dermal and epidermal layers were carefully separated, and the epidermis was then dehydrated with a series of ethanol treatments (70%, 80%, 90% and 100%). […]

Sequence of CYP26B1 (Q9NR63 whole entry): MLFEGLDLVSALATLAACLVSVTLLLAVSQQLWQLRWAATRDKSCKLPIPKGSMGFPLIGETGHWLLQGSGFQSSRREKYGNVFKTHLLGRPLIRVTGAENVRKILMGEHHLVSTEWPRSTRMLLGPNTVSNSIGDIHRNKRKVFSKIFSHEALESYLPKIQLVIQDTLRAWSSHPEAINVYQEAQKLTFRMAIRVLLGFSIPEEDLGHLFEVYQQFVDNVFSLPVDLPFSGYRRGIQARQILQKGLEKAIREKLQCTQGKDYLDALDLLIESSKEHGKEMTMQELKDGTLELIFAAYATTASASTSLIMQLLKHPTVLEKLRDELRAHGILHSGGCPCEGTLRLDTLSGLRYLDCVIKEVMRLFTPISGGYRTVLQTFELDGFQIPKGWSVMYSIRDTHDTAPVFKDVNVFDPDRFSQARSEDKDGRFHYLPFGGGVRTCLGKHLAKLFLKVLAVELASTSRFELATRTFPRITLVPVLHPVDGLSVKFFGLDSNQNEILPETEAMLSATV
Sequence of CYP26A1 (O43174 whole entry): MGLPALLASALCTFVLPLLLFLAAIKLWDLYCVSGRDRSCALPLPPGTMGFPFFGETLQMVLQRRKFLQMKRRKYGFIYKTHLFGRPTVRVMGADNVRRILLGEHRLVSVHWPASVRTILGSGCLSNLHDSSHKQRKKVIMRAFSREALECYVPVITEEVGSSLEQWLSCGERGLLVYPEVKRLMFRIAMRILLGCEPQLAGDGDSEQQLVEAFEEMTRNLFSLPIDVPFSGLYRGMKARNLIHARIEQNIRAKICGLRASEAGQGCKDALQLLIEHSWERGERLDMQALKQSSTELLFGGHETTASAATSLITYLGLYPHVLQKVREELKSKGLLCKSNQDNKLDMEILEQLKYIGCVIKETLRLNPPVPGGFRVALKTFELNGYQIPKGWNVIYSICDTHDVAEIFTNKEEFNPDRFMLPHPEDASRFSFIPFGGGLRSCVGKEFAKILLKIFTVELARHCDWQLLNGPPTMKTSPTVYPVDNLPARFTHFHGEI

## CC1(C)CC(C)(C)c2cc(B3Oc4ccc(CC(=O)O)cc4O3)cc(C3CC3)c2O1 [Compound 030]
CYP26A1
  IC50: 31.5 µM
  CYP26A1 Rel. to keto: 20
CYP26B1
  IC50: 88.1 µM
  CYP26B1 Rel. to keto: 9.2
[1]; 0.1 μM
  Rel. Luciferase Activity (mean): .0411
[1]; 1 μM
  Rel. Luciferase Activity (mean): .0343
[1]; 10 μM
  Rel. Luciferase Activity (mean): .0385

## CC(C)(C)c1cccc(B(O)Oc2ccc(/C=C/C(=O)O)cc2)c1 [Compound 029]
CYP26B1
  IC50: 54.9 µM
  CYP26B1 Rel. to keto: 5.7
[1]; 0.1 μM
  Rel. Luciferase Activity (mean): .0386
[1]; 1 μM
  Rel. Luciferase Activity (mean): .0384
[1]; 10 μM
  Rel. Luciferase Activity (mean): .0333

## CC(C)(C)c1cccc(C(=O)Cc2ccc(/C=C/C(=O)O)cc2)c1 [Compound 025]
CYP26A1
  IC50: 45.6 µM
  CYP26A1 Rel. to keto: 21.7
CYP26B1
  IC50: 17.9 µM
  CYP26B1 Rel. to keto: 4.2
[1]; 0.1 μM
  Rel. Luciferase Activity (mean): .0144
[1]; 1 μM
  Rel. Luciferase Activity (mean): .01
[1]; 10 μM
  Rel. Luciferase Activity (mean): .0128

## CC(C)(C)c1cccc(-c2cc3cc(CC(=O)O)ccc3o2)c1 [Compound 032]
CYP26A1
  IC50: 8.6 µM
  CYP26A1 Rel. to keto: 1.2
CYP26B1
  IC50: 2.3 µM
  CYP26B1 Rel. to keto: 0.3
[1]; 0.1 μM
  Rel. Luciferase Activity (mean): .0019
[1]; 1 μM
  Rel. Luciferase Activity (mean): .0015
[1]; 10 μM
  Rel. Luciferase Activity (mean): .0004

## CC(C)(C)c1cccc(-c2cc3cc(/C=C/C(=O)O)ccc3o2)c1 [Compound 031]
CYP26B1
  IC50: 18.3 µM
  CYP26B1 Rel. to keto: 2
[1]; 0.1 μM
  Rel. Luciferase Activity (mean): .0039
[1]; 1 μM
  Rel. Luciferase Activity (mean): .0047
[1]; 10 μM
  Rel. Luciferase Activity (mean): .0034

## CC1(C)CC(C)(C)c2cc(C(=O)Cc3ccc(CC(=O)O)cc3)cc(C3CC3)c2O1 [Compound 028]
CYP26A1
  IC50: > 1000 µM
CYP26B1
  IC50: > 1000 µM
[1]; 0.1 μM
  Rel. Luciferase Activity (mean): .0165
[1]; 1 μM
  Rel. Luciferase Activity (mean): .0094
[1]; 10 μM
  Rel. Luciferase Activity (mean): .0144

## CC1=C(/C=C/C(C)=C/C=C/C(C)=C/C(=O)O)C(C)(C)CCC1 [RA, retinoic acid, reference compound]
Human AML THP-1 cells
  CD11b marker expression (MFI): significantly increases expression of the CD11b marker
THP-1 cells
  Colony forming ability: reduced in THP-1 cells by exposure to RA
MV4-11 cells [2]
  Percentage of CD11b+ cells: increased the percentage of
MV4-11 cells [3]
  Apoptosis (Annexin V positive cells): undergo apoptosis in response to RA
kasumi-1 human AML cells
  Number of CD34+CD38- cells (LSCs): significantly reduced the number of these cells
Rhino mice
  Utriculi size and epidermis thickness: reduction in the size of these utriculi, and a thickening of the epidermis

## Cc1ccc(C(C)(C)C)cc1-c1cc2cc(/C=C/C(=O)O)ccc2[nH]1 [Compound 034]
CYP26A1
  IC50: 9.6 µM
  CYP26A1 Rel. to keto: 1.9
CYP26B1
  IC50: 0.5 µM
  CYP26B1 Rel. to keto: 0.2

## CC1(C)CC(C)(C)c2cc(-c3cc4cc(CC(=O)O)ccc4o3)cc(C3CC3)c2O1 [Compound 033]
[1]; 0.1 μM
  Rel. Luciferase Activity (mean): .0024
[1]; 1 μM
  Rel. Luciferase Activity (mean): .0026
[1]; 10 μM
  Rel. Luciferase Activity (mean): .0027

## C=CCc1cc(C(=O)Cc2ccc(CC(=O)O)cc2)cc2c1OC(C)(C)CC2(C)C [Compound 027]
CYP26A1
  IC50: 8.6 µM
  CYP26A1 Rel. to keto: 1.2
CYP26B1
  IC50: 8.8 µM
  CYP26B1 Rel. to keto: 0.9
[1]; 0.1 μM
  Rel. Luciferase Activity (mean): .0116
[1]; 1 μM
  Rel. Luciferase Activity (mean): .0099
[1]; 10 μM
  Rel. Luciferase Activity (mean): .0121
